Results: US7176313B2, “Anti acid-fast bacterial agent containing pyridonecarboxylic acids as active ingredient” (Daiichi Pharmaceutical Co., Ltd., priority 2000, dated 2007)
In brackets after ≈: the same amount, converted by molar mass.

Experiments:
[1] = test system: M. avium; assay: Antibacterial activity (MIC) against M. avium; assay type: cell-based, Mycobacterium avium
Procedure: Antibacterial activity of the compounds of the invention was measured in accordance with the method described in the literature of Antimicrob. […] In the tables, “OFLX” is an abbreviation of “OFLOXAIN”.

[2] = test system: Mycobacterium tuberculosis (RFP sensitive); assay: Antibacterial activity (MIC) against Mycobacterium tuberculosis (RFP sensitive); assay type: cell-based
[3] = test system: M. intracellulare; assay: Antibacterial activity (MIC) against M. intracellulare; assay type: cell-based, Mycobacterium intracellulare
Procedure: Antibacterial activity of the compounds of the invention was measured in accordance with the method described in the literature of Antimicrob. Agents and Chemother., 38, 2877 (1994), and the results are shown in Tables 3 to 8 in terms of MIC (μg/ml). In the tables, “OFLX” is an abbreviation of “OFLOXAIN”.

[4] = M. tuberculosis Kurono, Table 5
[5] = M. tuberculosis No. 40, Table 5
[6] = M. tuberculosis No. 41, Table 5
[7] = M. tuberculosis No. 43, Table 5
[8] = M. tuberculosis No. 68, Table 5
[9] = M. intracellulare N-294, Table 3
[10] = M. intracellulare N-313, Table 3
[11] = M. intracellulare N-338, Table 3
[12] = M. intracellulare N-345, Table 3

Row | Compound | MIC ([1]; M. avium N-357, Table 3) [µg/mL] | MIC ([1]; M. avium N-444, Table 3) [µg/mL] | MIC ([1]; M. avium N-458, Table 3) [µg/mL] | MIC ([1]; M. avium N-472, Table 3) [µg/mL] | MIC ([2]; M. tuberculosis H37Rv, Table 5) [µg/mL] | MIC [2, 4] [µg/mL] | MIC [2, 5] [µg/mL] | MIC [2, 6] [µg/mL] | MIC [2, 7] [µg/mL] | MIC [2, 8] [µg/mL] | MIC [3, 9] [µg/mL] | MIC [3, 10] [µg/mL] | MIC [3, 11] [µg/mL] | MIC [3, 12] [µg/mL] | also measured
1 | COc1c(N2CC(N)C3(CC3)C2)c(F)cc2c(=O)c(C(=O)O)cn([C@@H]3C[C@@H]3F)c12 (stereo partly drawn) [Compd. 8] | 1.56 (≈ 3.85 µM) | 1.56 (≈ 3.85 µM) | 0.78 (≈ 1.92 µM) | 3.13 (≈ 7.72 µM) | 0.10 (≈ 0.247 µM) | 0.05 (≈ 0.123 µM) | 0.10 (≈ 0.247 µM) | 0.006 (≈ 0.0148 µM) | 0.78 (≈ 1.92 µM) | 0.20 (≈ 0.493 µM) | 1.56 (≈ 3.85 µM) | 0.39 (≈ 0.962 µM) | 1.56 (≈ 3.85 µM) | 1.56 (≈ 3.85 µM) | –
2 | C[C@H]1COc2c(N3CC4CCCNC4C3)c(F)cc3c(=O)c(C(=O)O)cn1c23 (stereo partly drawn) [Compd. 13] | 0.39 (≈ 1.01 µM) | 0.78 (≈ 2.01 µM) | 0.20 (≈ 0.516 µM) | 1.56 (≈ 4.03 µM) | 0.05 (≈ 0.129 µM) | 0.05 (≈ 0.129 µM) | 0.05 (≈ 0.129 µM) | – | – | 0.10 (≈ 0.258 µM) | 1.56 (≈ 4.03 µM) | 0.39 (≈ 1.01 µM) | 1.56 (≈ 4.03 µM) | 3.13 (≈ 8.08 µM) | –
3 | COc1c(N2CC3CCCNC3C2)c(F)cc2c(=O)c(C(=O)O)cn([C@@H]3C[C@@H]3F)c12 (stereo partly drawn) [Compd. 6] | 0.39 (≈ 0.93 µM) | 1.56 (≈ 3.72 µM) | 0.78 (≈ 1.86 µM) | 3.13 (≈ 7.46 µM) | 0.10 (≈ 0.238 µM) | 0.05 (≈ 0.119 µM) | 0.10 (≈ 0.238 µM) | 0.013 (≈ 0.031 µM) | 0.78 (≈ 1.86 µM) | 0.05 (≈ 0.119 µM) | 0.78 (≈ 1.86 µM) | 0.78 (≈ 1.86 µM) | 1.56 (≈ 3.72 µM) | 3.13 (≈ 7.46 µM) | –
4 | Cc1c(N2CC(N)C3(CC3)C2)c(F)cc2c(=O)c(C(=O)O)cn(C3CC3)c12 (stereo not drawn) [Compd. 11] | 0.39 (≈ 1.05 µM) | 1.56 (≈ 4.2 µM) | 0.39 (≈ 1.05 µM) | 3.13 (≈ 8.43 µM) | 0.05 (≈ 0.135 µM) | 0.05 (≈ 0.135 µM) | 0.05 (≈ 0.135 µM) | 0.013 (≈ 0.035 µM) | 0.39 (≈ 1.05 µM) | 0.05 (≈ 0.135 µM) | 1.56 (≈ 4.2 µM) | 0.39 (≈ 1.05 µM) | 1.56 (≈ 4.2 µM) | 3.13 (≈ 8.43 µM) | –
5 | CC1COc2c(N3CCN(C)CC3)c(F)cc3c(=O)c(C(=O)O)cn1c23 (stereo not drawn) [OFLX, OFLOXAIN, reference compound] | 3.13 (≈ 8.66 µM) | 25 (≈ 69.2 µM) | 3.13 (≈ 8.66 µM) | 50 (≈ 138 µM) | 0.39 (≈ 1.08 µM) | 0.39 (≈ 1.08 µM) | 0.39 (≈ 1.08 µM) | 0.10 (≈ 0.277 µM) | – | 0.39 (≈ 1.08 µM) | 12.5 (≈ 34.6 µM) | 6.25 (≈ 17.3 µM) | 25 (≈ 69.2 µM) | 25 (≈ 69.2 µM) | MIC ([1]; M. avium N-357, Table 4 (series 2)): 4.0 µg/mL (≈ 11.1 µM); MIC ([1]; M. avium N-444, Table 4 (series 2)): 32 µg/mL (≈ 88.6 µM); MIC ([1]; M. avium N-458, Table 4 (series 2)): 4.0 µg/mL (≈ 11.1 µM); MIC ([1]; M. avium N-472, Table 4 (series 2)): 128 µg/mL (≈ 354 µM); MIC ([2]; M. tuberculosis H37Rv, Table 6 (series 2)): 1.0 µg/mL (≈ 2.77 µM); MIC ([2]; M. tuberculosis Kurono, Table 6 (series 2)): 0.50 µg/mL (≈ 1.38 µM); MIC ([2]; M. tuberculosis No. 40, Table 6 (series 2)): 1.0 µg/mL (≈ 2.77 µM); MIC ([2]; M. tuberculosis No. 41, Table 6 (series 2)): 0.25 µg/mL (≈ 0.692 µM); MIC ([2]; M. tuberculosis No. 43, Table 6 (series 2)): 8.0 µg/mL (≈ 22.1 µM); MIC ([2]; M. tuberculosis No. 68, Table 6 (series 2)): 1.0 µg/mL (≈ 2.77 µM); MIC ([3]; M. intracellulare N-294, Table 4 (series 2)): 8.0 µg/mL (≈ 22.1 µM); MIC ([3]; M. intracellulare N-313, Table 4 (series 2)): 1.0 µg/mL (≈ 2.77 µM); MIC ([3]; M. intracellulare N-338, Table 4 (series 2)): 2.0 µg/mL (≈ 5.53 µM); MIC ([3]; M. intracellulare N-345, Table 4 (series 2)): 2.0 µg/mL (≈ 5.53 µM)
6 | COc1c(N2CC3CCCNC3C2)c(F)cc2c(=O)c(C(=O)O)cn(C3CC3)c12 (stereo not drawn) [Compd. 5] | 0.39 (≈ 0.972 µM) | 1.56 (≈ 3.89 µM) | 0.78 (≈ 1.94 µM) | – | 0.10 (≈ 0.249 µM) | 0.05 (≈ 0.125 µM) | 0.10 (≈ 0.249 µM) | 0.025 (≈ 0.0623 µM) | 0.78 (≈ 1.94 µM) | 0.10 (≈ 0.249 µM) | 1.56 (≈ 3.89 µM) | 0.78 (≈ 1.94 µM) | 1.56 (≈ 3.89 µM) | 3.13 (≈ 7.8 µM) | –
7 | COc1c(N2CC(N)C3(CC3)C2)c(F)cc2c(=O)c(C(=O)O)cn(C3CC3)c12 (stereo not drawn) [Compd. 7] | 0.39 (≈ 1.01 µM) | 1.56 (≈ 4.03 µM) | 0.78 (≈ 2.01 µM) | 6.25 (≈ 16.1 µM) | – | – | – | – | – | – | 0.78 (≈ 2.01 µM) | 0.2 (≈ 0.516 µM) | 0.39 (≈ 1.01 µM) | 1.56 (≈ 4.03 µM) | –
